Experiments:
mouse TAAR1 = mouse TAAR1 (Mus musculus (Mouse), UniProt Q923Y8); test: Radioligand binding assay on mouse TAAR1; conditions: for Ki: mouse TAAR1, membranes of stably transfected HEK-293 cells, first value of mouse/rat pair
Protocol: (§1) Construction of TAAR Expression Plasmids and Stably Transfected Cell Lines
(§2) For the construction of expression plasmids the coding sequences of human, rat and mouse TAAR 1 were amplified from genomic DNA essentially as described by Lindemann et al.. The Expand High Fidelity PCR System (Roche Diagnostics) was used with 1.5 mM Mg^2+ and purified PCR products were cloned into pCR2.1-TOPO cloning vector (Invitrogen) following the instructions of the manufacturer. PCR products were subcloned into the pIRESneo2 vector (BD Clontech, Palo Alto, Calif.), and expression vectors were sequence verified before introduction in cell lines.
(§3) HEK293 cells (ATCC # CRL-1573) were cultured essentially as described by Lindemann et al. (2005). For the generation of stably transfected cell lines HEK293 cells were transfected with the pIRESneo2 expression plasmids containing the TAAR coding sequences (described above) with Lipofectamine 2000 (Invitrogen) according to the instructions of the manufacturer, and 24 hrs post transfection the culture medium was supplemented with 1 mg/ml G418 (Sigma, Buchs, Switzerland). After a culture period of about 10 d clones were isolated, expanded and tested for responsiveness to trace amines (all compounds purchased from Sigma) with the cAMP Biotrak Enzyme immunoassay (EIA) System (Amersham) following the non-acetylation EIA procedure provided by the manufacturer.
Radioligand Binding Assay on Mouse TAAR1
(§4) Membrane Preparation and Radioligand Binding.
(§5) HEK-293 cells stably expressing mouse TAAR1 were maintained at 37° C. and 5% CO2 in DMEM high glucose medium, containing fetal calf serum (10%, heat inactivated for 30 min at 56° C.), penicillin/streptomycin (1%), and 375 μg/ml geneticin (Gibco). Cells were released from culture flasks using trypsin/EDTA, harvested, washed twice with ice-cold PBS (without Ca^2+ and Mg^2+), pelleted at 1′000 rpm for 5 min at 4° C., frozen and stored at −80° C. Frozen pellets were suspended in 20 ml HEPES-NaOH (20 mM, pH 7.4) containing 10 mM EDTA and homogenized with a Polytron (PT 6000, Kinematica) at 14,000 rpm for 20 s. The homogenate was centrifuged at 48,000×g for 30 min at 4° C. Subsequently, the supernatant was removed and discarded, and the pellet resuspended in 20 ml HEPES-NaOH (20 mM, pH 7.4) containing 0.1 mM EDTA using the Polytron (20 s at 14,000 rpm). This procedure was repeated and the final pellet resuspended in HEPES-NaOH containing 0.1 mM EDTA and homogenized using the Polytron. Typically, aliquots of 2 ml membrane portions were stored at −80° C. With each new membrane batch the dissociation constant (Kd) was determined via a saturation curve. […] Nonspecific binding was defined as the amount of ^3[H]—(S)-4-[(ethyl-phenyl-amino)-methyl]-4,5-dihydro-oxazol-2-ylamine bound in the presence of 10 μM unlabeled ligand. All compounds were tested at a broad range of concentrations (10 pM to 10 μM) in duplicates. […] The 96 deep well plates were incubated for 1 hr at 4° C. Incubations were terminated by rapid filtration through Unifilter-96 plates (Packard Instrument Company) and glass filters GF/C (Perkin Elmer) presoaked for 1 hr in polyethylenimine (0.3%) and washed 3 times with 1 ml of cold binding buffer. After addition of 45 μl of Microscint 40 (PerkinElmer) the Unifilter-96 plate was sealed and after 1 hr the radioactivity counted using a TopCount Microplate Scintillation Counter (Packard Instrument Company).

rat TAAR1 = rat TAAR1 (Rattus norvegicus (Rat), UniProt Q923Y9); test: Radioligand binding assay on rat TAAR1; conditions: for Ki: rat TAAR1, membranes of stably transfected HEK-293 cells, second value of mouse/rat pair
Protocol: as §1, §2, §3
Radioligand Binding Assay on Rat TAAR1
as §4
as §5, with “rat” for “mouse”, “[H]—(S)-4-[(ethyl-phenyl-amino)-methyl]-4,5-dihydro-oxazol-2-ylamine” for “^3[H]—(S)-4-[(ethyl-phenyl-amino)-methyl]-4,5-dihydro-oxazol-2-ylamine”

Chain of rat TAAR1 (Q923Y9 whole entry): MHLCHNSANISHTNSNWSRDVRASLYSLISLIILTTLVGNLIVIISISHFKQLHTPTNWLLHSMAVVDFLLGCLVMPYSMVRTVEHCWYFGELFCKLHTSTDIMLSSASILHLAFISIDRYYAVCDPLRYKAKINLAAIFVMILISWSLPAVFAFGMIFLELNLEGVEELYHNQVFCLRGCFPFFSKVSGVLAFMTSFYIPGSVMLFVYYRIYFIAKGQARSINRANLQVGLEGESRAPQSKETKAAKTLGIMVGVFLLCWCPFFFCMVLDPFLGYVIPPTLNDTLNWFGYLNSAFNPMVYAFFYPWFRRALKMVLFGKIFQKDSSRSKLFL
Chain of mouse TAAR1 (Q923Y8 whole entry): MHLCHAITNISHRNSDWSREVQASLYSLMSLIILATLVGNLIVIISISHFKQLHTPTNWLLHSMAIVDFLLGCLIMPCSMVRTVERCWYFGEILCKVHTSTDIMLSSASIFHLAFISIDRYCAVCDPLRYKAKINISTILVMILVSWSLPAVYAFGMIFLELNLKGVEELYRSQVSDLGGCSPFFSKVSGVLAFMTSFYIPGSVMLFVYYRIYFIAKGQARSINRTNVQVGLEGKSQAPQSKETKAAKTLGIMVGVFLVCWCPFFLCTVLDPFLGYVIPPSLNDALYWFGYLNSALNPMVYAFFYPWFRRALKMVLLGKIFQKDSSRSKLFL

SMILES	Ki (mouse TAAR1)	Ki (rat TAAR1)	Kd (mouse TAAR1; mouse TAAR1 membranes, saturation curve, read-out: dissociation constant (Kd) of the radioligand)	Kd (rat TAAR1; rat TAAR1 membranes, saturation curve, read-out: dissociation constant (Kd) of the radioligand)
Cc1cc(C(=O)Nc2ccc3c(c2)OC[C@H](N)C3)nc(C(F)(F)F)n1 [Example 12, (R)—N-(3-Aminochroman-7-yl)-6-methyl-2-(trifluoromethyl)pyrimidine-4-carboxamide]	0.0581 µM	0.0436 µM		
NC1CCc2cc(C(=O)Nc3cnc(C(F)(F)F)cn3)ccc2C1 (stereo not drawn) [Example 33, 6-Amino-N-(5-(trifluoromethyl)pyrazin-2-yl)-5,6,7,8-tetrahydronaphthalene-2-carboxamide]	0.021 µM	0.0865 µM		
NC1CCc2cc(C(=O)Nc3ccc(C4CC4)cc3)ccc2C1 (stereo not drawn) [Example 60, 6-Amino-N-(4-cyclopropylphenyl)-5,6,7,8-tetrahydronaphthalene-2-carboxamide]	0.0096 µM	0.0213 µM		
CCCc1cc(C(=O)Nc2ccc3c(c2)OC[C@H](N)C3)nn1CC(F)F [Example 10, (R)—N-(3-Aminochroman-7-yl)-1-(2,2-difluoroethyl)-5-propyl-1H-pyrazole-3-carboxamide]	0.0111 µM	0.0034 µM		
N[C@H]1CCc2c(ccc(NC(=O)c3ccc(Cl)nc3)c2Cl)C1 [Example 76, (S)—N-(6-Amino-1-chloro-5,6,7,8-tetrahydronaphthalen-2-yl)-6-chloronicotinamide]	> 1.51 µM	0.302 µM		
N[C@@H]1CCc2cc(NC(=O)c3ccc(Cl)cc3)ccc2C1 [Example 14, (R)—N-(6-Amino-5,6,7,8-tetrahydronaphthalen-2-yl)-4-chlorobenzamide]	0.0092 µM	0.0069 µM		
N[C@@H]1CCc2cc(C(=O)Nc3cccc(OC(F)(F)F)c3)ccc2C1 [Example 78, (R)-6-Amino-N-(3-(trifluoromethoxy)phenyl)-5,6,7,8-tetrahydronaphthalene-2-carboxamide]	0.0073 µM	0.0044 µM		
CC(=O)Nc1cc(C(=O)Nc2ccc3c(c2)CC[C@H](N)C3)ccn1 [Example 18, (S)-2-Acetamido-N-(6-amino-5,6,7,8-tetrahydronaphthalen-2-yl)isonicotinamide]	0.71 µM	0.232 µM		
CCCc1cc(C(=O)Nc2ccc3c(c2)CC[C@@H](N)C3)nn1CC(F)F [Example 4, (R)—N-(6-Amino-5,6,7,8-tetrahydronaphthalen-2-yl)-1-(2,2-difluoroethyl)-5-propyl-1H-pyrazole-3-carboxamide]	0.0914 µM	0.0055 µM		
CCOc1cc(C(=O)Nc2ccc3c(c2)CC[C@H](N)C3)ccn1 [Example 19, (S)—N-(6-Amino-5,6,7,8-tetrahydronaphthalen-2-yl)-2-ethoxyisonicotinamide]	0.0187 µM	0.0216 µM		
N[C@H]1CCc2cc(NC(=O)c3cccnc3F)ccc2C1 [Example 39, (S)—N-(6-Amino-5,6,7,8-tetrahydronaphthalen-2-yl)-2-fluoronicotinamide]	0.476 µM	0.14 µM		
N[C@H]1COc2cc(NC(=O)c3nccc(Cl)n3)ccc2C1 [Example 82, (R)—N-(3-Aminochroman-7-yl)-4-chloropyrimidine-2-carboxamide]	0.173 µM	0.511 µM		
CCN(C[C@H]1COC(N)=N1)c1ccccc1 [(S)-4-[(ethyl-phenyl-amino)-methyl]-4,5-dihydro-oxazol-2-ylamine, reference compound]			~0.7 nM	~2.3 nM
COc1cccc(Nc2ccc3c(c2)CC[C@H](N)C3)c1 [Example 94, (S)—N6-(3-Methoxyphenyl)-1,2,3,4-tetrahydronaphthalene-2,6-diamine]	0.0541 µM	0.0462 µM		
Cc1cc(C(=O)Nc2ccc3c(c2)CC[C@H](N)C3)ccn1 [Example 17, (S)—N-(6-Amino-5,6,7,8-tetrahydronaphthalen-2-yl)-2-methylisonicotinamide]	0.111 µM	0.147 µM		
N[C@H]1CCc2cc(Nc3ccc(F)cc3)ccc2C1 [Example 66, (S)—N6-(4-Fluorophenyl)-1,2,3,4-tetrahydronaphthalene-2,6-diamine]	0.171 µM	0.024 µM		

The next lines start with the values.

Ki (mouse TAAR1)	Ki (rat TAAR1)	Kd (mouse TAAR1; mouse TAAR1 membranes, saturation curve, read-out: dissociation constant (Kd) of the radioligand)	Kd (rat TAAR1; rat TAAR1 membranes, saturation curve, read-out: dissociation constant (Kd) of the radioligand)	SMILES
0.0012 µM	0.0003 µM			N[C@H]1CCc2cc(NC(=O)Nc3ccc(OC(F)(F)F)cc3)ccc2C1 [Example 65, (S)-1-(6-Amino-5,6,7,8-tetrahydronaphthalen-2-yl)-3-(4-(trifluoromethoxy)phenyl)urea]
0.0012 µM	0.0005 µM			N[C@H]1CCc2cc(NC(=O)c3cnn(-c4ccc(OC(F)(F)F)cc4)c3)ccc2C1 [Example 29, (S)—N-(6-Amino-5,6,7,8-tetrahydronaphthalen-2-yl)-1-(4-(trifluoromethoxy)phenyl)-1H-pyrazole-4-carboxamide]
0.0009 µM	0.0061 µM			Cn1nc(C(=O)Nc2ccc3c(c2)OC[C@H](N)C3)cc1-c1cccs1 [Example 85, (R)—N-(3-Aminochroman-7-yl)-1-methyl-5-(thiophen-2-yl)-1H-pyrazole-3-carboxamide]
0.0007 µM	0.0003 µM			N[C@H]1CCc2cc(NC(=O)c3cnn(-c4ccc(Cl)c(Cl)c4)c3)ccc2C1 [Example 28, (S)—N-(6-Amino-5,6,7,8-tetrahydronaphthalen-2-yl)-1-(3,4-dichlorophenyl)-1H-pyrazole-4-carboxamide]
0.0007 µM	0.0003 µM			N[C@H]1CCc2cc(NC(=O)c3[nH]nc(-c4ccc(Cl)o4)c3Cl)ccc2C1 [Example 25, (S)—N-(6-Amino-5,6,7,8-tetrahydronaphthalen-2-yl)-4-chloro-3-(5-chlorofuran-2-yl)-1H-pyrazole-5-carboxamide]
0.003 µM	0.0026 µM			CCc1ccc(NC(=O)Nc2ccc3c(c2)CC[C@H](N)C3)cc1 [Example 64, (S)-1-(6-Amino-5,6,7,8-tetrahydronaphthalen-2-yl)-3-(4-ethylphenyl)urea]
0.0011 µM	0.0003 µM			N[C@H]1CCc2cc(NC(=O)Nc3ccc(C(F)(F)F)cc3)ccc2C1 [Example 24, (S)-1-(6-Amino-5,6,7,8-tetrahydronaphthalen-2-yl)-3-(4-(trifluoromethyl)phenyl)urea]
0.0055 µM	0.035 µM			NC1CCc2cc(C(=O)NCc3ccc(C(F)(F)F)cc3)ccc2C1 (stereo not drawn) [Example 35, 6-Amino-N-(4-(trifluoromethyl)benzyl)-5,6,7,8-tetrahydronaphthalene-2-carboxamide]
